The values that follow come from article doi:10.1101/2023.10.24.563163v2, “Targeting cancer with small molecule pan-KRAS degraders” (biorxiv, 2024).

One assay addresses T1, HiBiT-KRAS^G12D (Homo sapiens, UniProt P01116, G12D).
T1 construct: HiBiT-tagged
The assay can be described thus: cell-based. The conditions noted are these: GP5d; read-out: Dmax 24 h GP5d HiBiT [%]. Further details: HiBiT-KRAS degradation, split nanoluciferase lytic detection. How it is done: This formula was derived from the Growth Inhibition (GI) calculation used in the National Cancer Institute’s NCI-60 high-throughput screen. KRAS Degradation Assays via Detection of Split Nanoluciferase (HiBiT) To assess PROTAC-mediated degradation of HiBiT-tagged KRAS constructs, cells were seeded at 25 000 cells per well in culture medium into white bottom opaque 96-well plates (Perkin Elmer cat no. 5680). Plates were incubated at 37 °C, 5% CO2 in a humidified incubator over night to allow the cells to adhere. Test compounds (10 mM stock in DMSO) were added at logarithmic dose series using the HP Digital Dispenser D300 (Tecan), normalizing for added DMSO. […] Following incubation, 100 µL per well Promega Nano-Glo HiBiT lytic detection reagent mix (Promega Nano-Glo HiBiT Lytic Detection System #N3050), prepared according to the manufacturer´s instructions in the kit, were added. To allow for adequate cell lysis, plates were incubated on an orbital shaker for 15 min. and further incubated 30 min. at room temperature. Upon completion of cell lysis, luminescence was measured using an Envision plate reader using the Ultrasensitive Luminescence Protocol for 96-well plates. Luminescence levels were normalized by the values obtained with DMSO-treated samples and plotted as percent of DMSO control. DC50 values were computed using a three parametric logistic model. Dmax values represent the maximal extent of degradation observed and are stated as percent of control treatments.
(In general: HiBiT is a short tag that completes a luciferase, so light tracks the accessible tagged protein.)

The target in assay [1] is T2, KRAS^G12D (Homo sapiens, UniProt P01116, G12D). Details: endogenous; KRAS degradation by capillary electrophoresis immunodetection. The conditions noted are these: degrader; read-out: DC50 24 h GP5d. How it is done:
(§1) Protein Detection by Capillary Electrophoresis Cells (50 000) were seeded the day before treatment into 96-well clear-flat bottom plates and incubated overnight (37 °C, humidified tissue culture incubator, 5% CO2). Compounds were added from DMSO stock solution using a digital dispenser and cells are incubated at 37 °C as specified (24 hours for KRAS degradation, 6 hours for determination of pERK levels). At the end of the incubation, medium was removed, cells washed with ice cold PBS, PBS removed and 50 µL lysis buffer (Meso Scale Discovery #R60TX-2) supplemented with 1:100 protease inhibitor solution, 1:100 phosphatase inhibitor I, 1:100 phosphatase inhibitor II (Meso Scale Discovery #R70AA-1), 0.5 µL/mL Benzonase (Novagen #70664-3) and 10 mM dithiothreitol added to each well. Plates with lysis buffer were immediately transferred to -80 °C freezer for at least 2 hours and then thawed on ice. Lysates were transferred to a 96 well V-bottom plate and insoluble debris was pelleted by centrifugation for 20 min. at 4 000 rpm. 40 µL of the supernatant were transferred to a fresh Eppendorf PCR plate. Analysis of protein levels was conducted using the Wes System, ProteinSimple (https://www.bio-techne.com/) as specified by the manufacturer. Briefly, Wes Master Mix (12-230 kDa WES Separation Module, 8 × 25 capillary cartridges, ProteinSimple #SM-W004) and molecular weight markers were prepared as specified in the manufacturer’s recommendations. To detect primary antibodies, anti-rabbit (Protein Simple #DM-001) or anti-mouse (Protein Simple #DM-002) detection modules were used. 7.2 µL lysate + 1.8 µL master mix were combined and heated to 95 °C for 5 min.

Another assay concerns the target KRAS^G12V (Homo sapiens, UniProt P01116, G12V). The experiment in a line: cell-based. Further details: endogenous; KRAS degradation by capillary electrophoresis immunodetection. To be noted: SW-620; read-out: Dmax 24 h SW620 [%]. How it is done: as §1, with “5 min. […] Next, we set out to test the ability of a single pan-KRAS degrading molecule, compound 4, to selectively suppress oncogenic signaling and proliferation in cancer cell lines driven by diverse KRAS mutants. To this end, we first confirmed degradation of KRAS by compound 4 in KRAS-dependent (GP2d, SW620 and NCI-H358 expressing KRAS^G12D, - G12V or -G12C, respectively) as well as in KRAS independent (A-375, HEK293) cell lines (Fig. 3A, fig. S4A). […] Both inhibition and degradation repressed the established markers of MAPK signaling pERK (fig. S4B-D) and DUSP6 (Fig. 3B, fig. S4E) in KRAS dependent cell lines. […] Neither degradation nor inhibition had appreciable antiproliferative effects in the KRAS independent cell lines A-375 and HEK293 (Fig. 3C, fig. S4F).” for “5 min.”

A further assay deals with KRAS^G12C (Homo sapiens, UniProt P01116, G12C). The assay can be described thus: cell-based. Details: endogenous; KRAS degradation by capillary electrophoresis immunodetection. To be noted: NCI-H358; read-out: Dmax 24 h NCI-H358 [%]. How it is done:
as §1, with “5 min. […] Next, we set out to test the ability of a single pan-KRAS degrading molecule, compound 4, to selectively suppress oncogenic signaling and proliferation in cancer cell lines driven by diverse KRAS mutants. To this end, we first confirmed degradation of KRAS by compound 4 in KRAS-dependent (GP2d, SW620 and NCI-H358 expressing KRAS^G12D, - G12V or -G12C, respectively) as well as in KRAS independent (A-375, HEK293) cell lines (Fig. 3A, fig. S4A). […] Both inhibition and degradation repressed the established markers of MAPK signaling pERK (fig. S4B-D) and DUSP6 (Fig. 3B, fig. S4E) in KRAS dependent cell lines. […] Neither degradation nor inhibition had appreciable antiproliferative effects in the KRAS independent cell lines A-375 and HEK293 (Fig. 3C, fig. S4F).” for “5 min.”

Assay [2] addresses T2, KRAS^G12D. The assay can be described thus: cell-based. Further details: endogenous; KRAS degradation by capillary electrophoresis immunodetection. To be noted: GP2d; read-out: Dmax 24 h GP2d [%]. How it is done: as §1, with “5 min. […] Next, we set out to test the ability of a single pan-KRAS degrading molecule, compound 4, to selectively suppress oncogenic signaling and proliferation in cancer cell lines driven by diverse KRAS mutants. To this end, we first confirmed degradation of KRAS by compound 4 in KRAS-dependent (GP2d, SW620 and NCI-H358 expressing KRAS^G12D, - G12V or -G12C, respectively) as well as in KRAS independent (A-375, HEK293) cell lines (Fig. 3A, fig. S4A). […] Both inhibition and degradation repressed the established markers of MAPK signaling pERK (fig. S4B-D) and DUSP6 (Fig. 3B, fig. S4E) in KRAS dependent cell lines. […] Neither degradation nor inhibition had appreciable antiproliferative effects in the KRAS independent cell lines A-375 and HEK293 (Fig. 3C, fig. S4F).” for “5 min.”

Chain of KRAS^G12V (P01116 whole entry G12V): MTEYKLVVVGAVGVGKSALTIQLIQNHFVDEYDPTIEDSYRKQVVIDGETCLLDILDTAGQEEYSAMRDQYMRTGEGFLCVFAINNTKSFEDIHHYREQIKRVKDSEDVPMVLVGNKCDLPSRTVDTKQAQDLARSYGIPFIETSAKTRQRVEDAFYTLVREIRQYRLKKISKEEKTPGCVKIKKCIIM
T2 sequence (P01116 whole entry G12D): as the sequence (P01116 whole entry G12V) above, with V12D counted along it
T1 sequence (P01116 whole entry G12D): as the sequence (P01116 whole entry G12V) above, with V12D counted along it
Chain of KRAS^G12C (P01116 whole entry G12C): as the sequence (P01116 whole entry G12V) above, with V12C counted along it

As to `Cc1ncsc1-c1ccc(CNC(=O)[C@@H]2C[C@@H](O)CN2C(=O)[C@@H](NC(=O)COCCCN2CCCN(c3nccc(-c4noc([C@@]5(C)CCCc6sc(N)c(C#N)c65)n4)n3)[C@@H](C)C2)C(C)(C)C)cc1` [compound 2], the Dmax at HiBiT-KRAS^G12D and on KRAS^G12V was 100% each time. Further, on KRAS^G12D [1], the DC50 turned out to be 607 nM.

Take `Cc1ncsc1-c1ccc(CNC(=O)[C@@H]2C[C@@H](O)CN2C(=O)[C@@H](NC(=O)CCCCCN2CCCN(c3nccc(-c4noc([C@@]5(C)CCCc6sc(N)c(C#N)c65)n4)n3)[C@@H](C)C2)C(C)(C)C)cc1` [compound 3]: the Dmax stood at 95% on HiBiT-KRAS^G12D, 81% on KRAS^G12C, 96% on KRAS^G12D [2] and 88% at KRAS^G12V. Further, the half-maximal degradation concentration (DC50) on KRAS^G12D [1] worked out at 31.8 nM.

For `Cc1ncsc1-c1ccc(CNC(=O)[C@@H]2C[C@@H](O)CN2C(=O)[C@@H](c2cc(OCCCCN3CCCN(c4nccc(-c5noc([C@@]6(C)CCCc7sc(N)c(C#N)c76)n5)n4)[C@@H](C)C3)no2)C(C)C)cc1` [compound 4], the Dmax on HiBiT-KRAS^G12D worked out at 94%; at KRAS^G12C, 86%; at KRAS^G12D [2], 96%; at KRAS^G12V, 89%. The DC50 on KRAS^G12D [1] is 0.9 nM.

In the case of `Cc1ncsc1-c1ccc(CNC(=O)C2CC(O)CN2C(=O)C(c2cc(OCCCCN3CCCN(c4nccc(-c5noc(C6(C)CCCc7sc(N)c(C#N)c76)n5)n4)C(C)C3)no2)C(C)C)cc1` (centres unmarked) [compound 5], the Dmax was below 25% on KRAS^G12C, below 15% on KRAS^G12D [2] and below 15% at KRAS^G12V.

Take `Cc1ncsc1-c1ccc([C@H](CO)NC(=O)[C@@H]2C[C@@H](O)CN2C(=O)[C@H](C(C)C)n2cc(OCCCCN3CCCN(c4nccc(-c5noc([C@@]6(C)CCCc7sc(N)c(C#N)c76)n5)n4)[C@@H](C)C3)nn2)cc1` [compound 7, ACBI3]: the results for the Dmax at HiBiT-KRAS^G12D, at KRAS^G12D [2] and on KRAS^G12V were 95%, 99% and 83%, respectively. In addition, the DC50 on KRAS^G12D [1] was found to be 2.1 nM.

For orientation: Dmax means the largest share of the target that was removed. Usually DC50 stands for the concentration at which degradation of the target reaches its halfway point.
